Experimental findings from ChEMBL document CHEMBL5050827, “ATF6 inhibitors and uses thereof” (2020) are described below.

Where only a bound is given, the exact number is not on record here.

Data set [1] can be described thus: Inhibition of ATF6 activity in human U2OS cells in presence of ER stress inducer thapsigargin (Tg) measured by TRE-luciferase reporter assay. The data set is classed as cell-based.
The next data set concerns U2OS. The data set can be described thus: Inhibition of ATF6 activity in human U2OS cells at 1 uM in presence of ER stress inducer thapsigargin (Tg) measured by TRE-luciferase reporter assay relative to control. The data set is classed as cell-based.
Data set [2] in a line: Clearance in Balb/C mouse plasma at 10 mg/kg, po by LC-MS analysis. The data set is classed as ADME, organism-based.
Data set [3] is described as follows: AUC (infinity) in Balb/C mouse plasma at 10 mg/kg, po by LC-MS analysis. The data set is classed as ADME, organism-based. Further details: route oral, time infinity, dose 10 mg/kg.
Data set [4] is described as follows: Half-life in Balb/C mouse plasma at 10 mg/kg, po by LC-MS analysis. The data set is classed as ADME, organism-based.
Data set [5] is described as follows: AUC (last) in Balb/C mouse plasma at 10 mg/kg, po by LC-MS analysis. The data set is classed as ADME, organism-based. Also noted: time 0 - last, route oral, dose 10 mg/kg.

In general, IC50 refers to the concentration that inhibits the measured activity by half. As a reminder, the inhibition is the percentage by which the read-out fell short of the control. Turning to `CN(C(=O)c1cc(-c2ccccn2)on1)c1cnn(Cc2ccc(C(F)(F)F)cc2C(F)(F)F)c1`, the IC50 entry in data set [1] is “in the range around 1000 nM”. Moreover, in the data set with U2OS, the inhibition was determined as 25%.
In the same order, the values of `Cc1c(NC(=O)c2cc(-c3ccccn3)on2)cnn1[C@H](C)c1ccc(C(F)(F)F)cc1C(F)(F)F` are “in the range around 1000 nM” and 25%.
As for `O=C(Nc1cnn(Cc2ccccc2)c1)c1cc(-c2ccco2)on1`, the IC50 in data set [1] was greater than 10000 nM. The inhibition with U2OS was less than 25%.
In the same order, the values of `C[C@@H](c1ccc(C(F)(F)F)cc1C(F)(F)F)n1cc(NC(=O)c2cnc(-c3ccccn3)o2)cn1` are greater than 10000 nM and less than 25%.
On to `C[C@H](c1ccc(C(F)(F)F)cc1C(F)(F)F)n1cc(NC(=O)c2cnc(-c3ccccn3)s2)cn1`, for which the half-maximal inhibitory concentration (IC50) result in data set [1] is “in the range around 1000 nM”. For the same molecule, the inhibition in the data set with U2OS is 25%.
Consider `Cc1cccc(-c2cc(C(=O)Nc3cnn(Cc4ccc(C(F)(F)F)cc4C(F)(F)F)c3)no2)n1`, for which the inhibition with U2OS was 25%.
The same measure, in the same setting: next, `C[C@H](c1ccc(C(F)(F)F)cc1C(F)(F)F)n1cc(NC(=O)c2cc(-c3ccco3)on2)cn1`: less than 25%; `C[C@H](c1ccc(C(F)(F)F)cc1C(F)(F)F)n1cc(NC(=O)c2nnc(-c3ccncn3)s2)cn1`: 25%.
As for `O=C(Nc1cnn(Cc2ccc(C(F)(F)F)cc2C(F)(F)F)c1)c1cc(-c2cccs2)on1`, the inhibition in the data set with U2OS stood at 25%.
As usually defined, the CL/F is clearance divided by bioavailability, as obtained after extravascular dosing. Take `C[C@H](c1ccc(C(F)(F)F)cc1C(F)(F)F)n1cc(NC(=O)c2nnc(-c3ccccn3)s2)cn1`: the CL/F in data set [2] was 2.68 mL/min/kg.
With `O=C(Nc1cnn(Cc2ccc(C(F)(F)F)cc2C(F)(F)F)c1)c1cnc(-c2ccccn2)s1`, the 50% inhibitory concentration (IC50) entry in data set [1] was “in the range around 1000 nM”.
As usually defined, the AUC(0-inf) is total exposure, with the tail of the curve extrapolated. The low end stands for less exposure, the high end for more exposure. The term half-life denotes the time needed for the level to fall by half in the phase considered. The low end stands for fast loss, the high end for slow loss. One may read the AUC(0-t) as the area under the concentration-time curve up to a stated or last time point. `O=C(Nc1cnn(Cc2ccc(C(F)(F)F)cc2C(F)(F)F)c1)c1cc(-c2ccco2)on1`: in data set [1], the 50% inhibitory concentration (IC50) is less than 1000 nM. The inhibition with U2OS is greater than 50%. The same molecule showed an AUC(0-inf) in data set [3] of 43.3 ng·h/mL. In data set [2], this molecule showed a CL/F of 3850 mL/min/kg. In data set [4], this molecule had a half-life of 2.49 h. The molecule also registered an AUC(0-t) in data set [5] of 39.1 ng·h/mL.
As for `C[C@H](c1ccc(C(F)(F)F)cc1C(F)(F)F)n1cc(NC(=O)c2cc(-c3ccccn3)on2)cn1`, the inhibition with U2OS is less than 25%.
In the case of `C[C@@H](c1ccc(C(F)(F)F)cc1C(F)(F)F)n1cc(NC(=O)c2nnc(-c3ccccn3)s2)cn1`, in data set [1], the IC50 entry was “in the range around 1000 nM”. Moreover, the inhibition with U2OS is less than 25%.
Consider `Cc1c(NC(=O)c2cc(-c3ccccn3)on2)cnn1Cc1ccc(C(F)(F)F)cc1C(F)(F)F`, for which the IC50 entry in data set [1] is “in the range around 1000 nM”. In addition, the inhibition in the data set on U2OS is 25%.
Consider `C[C@@H](c1ccc(C(F)(F)F)cc1C(F)(F)F)n1cc(NC(=O)c2cc(-c3ccco3)on2)cn1`, for which, in data set [2], the CL/F is 267 mL/min/kg.
`C[C@@H](c1ccc(C(F)(F)F)cc1C(F)(F)F)n1cc(NC(=O)c2nnc(-c3ccco3)s2)cn1`: the inhibition in the data set on U2OS was 25%.
With `Cc1nn([C@H](C)c2ccc(C(F)(F)F)cc2C(F)(F)F)cc1NC(=O)c1cc(-c2ccccn2)on1`, in the data set on U2OS, the inhibition amounted to 25%.
For `C[C@H](c1ccc(F)cc1C(F)(F)F)n1cc(NC(=O)c2cc(-c3ccccn3)on2)cn1`, in data set [1], the IC50 entry was “in the range around 1000 nM”. In addition, the inhibition in the data set on U2OS is 25%.
On to `C[C@@H](c1ccc(C(F)(F)F)cc1C(F)(F)F)n1cc(NC(=O)c2cc(-c3ccccn3)on2)cn1`, for which the inhibition with U2OS was greater than 50%. For the same molecule, in data set [2], the CL/F was 5.17 mL/min/kg.
`Cc1cccc(-c2cc(C(=O)Nc3cnn([C@H](C)c4ccc(C(F)(F)F)cc4C(F)(F)F)c3)no2)n1`: the inhibition in the data set with U2OS stood at 25%.
Consider `O=C(Nc1cnn(Cc2ccc(C(F)(F)F)cc2C(F)(F)F)c1)c1cc(-c2ccncc2)on1`, for which the half-inhibitory concentration (IC50) result in data set [1] was “in the range around 1000 nM”.
Take `CC(c1ccc(C(F)(F)F)cc1C(F)(F)F)n1cc(NC(=O)c2cnc(-c3ccccn3)s2)cn1` (stereo not given): the IC50 entry in data set [1] was “in the range around 1000 nM”.
`C[C@H](c1ccc(C(F)(F)F)cc1C(F)(F)F)n1cc(NC(=O)c2cc(-c3cnccn3)on2)cn1` gave an apparent clearance CL/F in data set [2] of 1.56 mL/min/kg.
For `O=C(Nc1cnn(Cc2ccc(C(F)(F)F)cc2)c1)c1cc(-c2ccco2)on1`, the IC50 in data set [1] was greater than 10000 nM. Besides, the inhibition in the data set with U2OS was less than 25%.
Regarding `CC(c1ccc(C(F)(F)F)cc1C(F)(F)F)n1cc(NC(=O)c2cc(-c3ccccn3)nn2C)cn1` (stereo not given), the inhibition in the data set on U2OS was found to be 25%.
Regarding `O=C(Nc1cnn(C2CCc3ccccc32)c1)c1nnc(-c2ccco2)o1` (stereo not given), the 50% inhibitory concentration (IC50) in data set [1] is greater than 10000 nM. In the data set with U2OS, the inhibition was less than 25%.
With `Cc1ccc(-c2cc(C(=O)Nc3cnn(Cc4ccc(C(F)(F)F)cc4C(F)(F)F)c3)no2)o1`, the IC50 result in data set [1] is “in the range around 1000 nM”.
For the molecule `O=C(Nc1cnn(Cc2ccc(C(F)(F)F)cc2C(F)(F)F)c1)c1cc(-c2ccccn2)on1`, the CL/F in data set [2] is 16.2 mL/min/kg.
Regarding `C[C@@H](c1ccc(C(F)(F)F)cc1C(F)(F)F)n1cc(NC(=O)c2coc(-c3ccccn3)n2)cn1`, the IC50 in data set [1] was greater than 10000 nM. Also, in the data set on U2OS, the inhibition is less than 25%.
Turning to `C[C@H](c1ccc(C(F)(F)F)cc1C(F)(F)F)n1cc(NC(=O)c2cc(-c3ccccn3)no2)cn1`, the apparent clearance CL/F in data set [2] is 3.68 mL/min/kg.
`C[C@H](c1ccc(C(F)(F)F)cc1C(F)(F)F)n1cc(NC(=O)c2cn(-c3ccccn3)nn2)cn1`: the inhibition in the data set on U2OS worked out at 25%.
For `CC(c1ccc(C(F)(F)F)cc1C(F)(F)F)n1cc(NC(=O)c2cc(-c3cccs3)on2)cn1` (stereo not given), the concentration for half-maximal inhibition (IC50) entry in data set [1] is “in the range around 1000 nM”.
